≈ marks a conversion by molar mass, not a printed value. Like-named read-outs stand apart in the source and are kept apart here.
Key:
[1] = system: B. subtilis; assay: Modified disk diffusion, inhibition zone; details: B. subtilis (G+)
[2] = system: E. coli; assay: Modified disk diffusion, inhibition zone; details: E. coli (G-)
[3] = system: P. aeruginosa; assay: Modified disk diffusion, inhibition zone; details: P. aeruginosa (G-)
[4] = system: C. albicans; assay: Modified disk diffusion, inhibition zone; details: C. albicans (fungi)
[5] = system: A. flavus; assay: Modified disk diffusion, inhibition zone; details: A. flavus (fungi)
[6] = system: S. aureus; assay: Modified disk diffusion, inhibition zone; details: S. aureus (G+)
[7] = system: B. subtilis; assay: Minimum bactericidal concentration (MBC) assay; assay type: cell-based, Bacillus subtilis
Text: (§1) The MBC differs from the MIC. […] Unlike the MBC, which leads to mortality, the MIC hinders bacterial growth without causing death.[41] The common expression for MBC is MBC50, signifying the antibiotic concentration that eliminates 50% of the initial bacterial population.[42]

[8] = system: A. flavus; assay: Antifungal MIC assay, 2-fold serial dilution; assay type: cell-based, Aspergillus flavus; details: Aspergillus flavus, read-out: MIC
[9] = system: P. aeruginosa; assay: MIC assay, 2-fold serial dilution in 96-well microtiter plate; assay type: cell-based, Pseudomonas aeuroginosa (ATCC 10145); details: Pseudomonas aeruginosa, read-out: MIC
Description: (§2) The outcomes of this in vitro assay test align with the results of the antimicrobial sensitivity test.
(§3) Appendix A (Supplementary File) provides experimental details.
(§4) In 96-well microtiter plates and […] of fresh bacterial culture of a single McFarland unit overnight, a double serial dilution of each compound […] in sterile standard saline were prepared to every single source well. […] The plates were incubated at 37 °C overnight. As an indicator of bacterial growth, […] of p-iodonitrotetrazolium violet (INT) was added to each well and incubated at 37 °C for 30 min. […] The colorless tetrazolidium salt acts as an electron accepter and is reduced to a red colored formazan product by biological activity organisms. Where bacterial growth was inhibited, the solution in the well remained clear after incubation with INT.

[10] = system: B. subtilis; assay: as above; assay type: cell-based, Bacillus subtilis (ATCC 6051); details: for MIC: Bacillus subtilis, read-out: MIC
Description: as §2, §3, §4

[11] = system: S. aureus; assay: as above; assay type: cell-based, Staphylococcus aureus (ATCC 12600); details: Staphylococcus aureus, read-out: MIC
Description: as §2, §3, §4

[12] = system: P. aeruginosa; assay: Minimum bactericidal concentration (MBC) assay; assay type: cell-based, Pseudomonas aeuroginosa
Text: as §1

[13] = target: T1, DHFR E. coli (Escherichia coli, UniProt P0ABQ4); assay: DHFR inhibitory assay; assay type: biochemical
T1 construct: purchased Inspiralis
Description: (§5) IC50 values were determined using seven different inhibitor concentrations and then calculated using the GraphPad Prism 6.0 software.

[14] = system: S. aureus; assay: Minimum bactericidal concentration (MBC) assay; assay type: cell-based, Staphylococcus aureus; details: Staphylococcus aureus, read-out: MBC
Text: as §1

[15] = target: T2, E. coli DNA gyrase (Escherichia coli, UniProt P0AES6); assay: DNA gyrase inhibitory (supercoiling) assay; assay type: biochemical
T2 construct: purchased Inspiralis
Description: as §5
All the final compounds were tested for E. coli DNA gyrase inhibitory activity in a supercoiling assay. Activities were determined on streptavidin-coated 96-well microtiter plates from Thermo scientific Pierce. […] After washing off the unbound oligonucleotide, the enzyme test was performed. […] After that, the TF buffer (50 mM NaOAc with pH 5.0, 50 mM NaCl and 50 mM MgCl2) was added to terminate the enzymatic reaction. After additional incubation for 30 min at rt, during which biotin-oligonucleotide-plasmid triplex was formed, the unbound plasmid was washed off using TF buffer and SybrGOLD in T10 buffer (10 mM Tris HCl with pH 8.0 and 1 mM EDTA) was added. […] Initial screening was done at 100 or 10 μM concentration of inhibitors. […] GraphPad Prism software was used to calculate the IC50 values. The result is given as the average value of three independent measurements.

[16] = system: E. coli; assay: MIC assay, 2-fold serial dilution in 96-well microtiter plate; assay type: cell-based, Escherichia coli (ATCC 11775); details: Escherichia coli, read-out: MIC
Description: as §2, §3, §4

[17] = system: E. coli; assay: Minimum bactericidal concentration (MBC) assay; assay type: cell-based, Escherichia coli
Text: as §1

[18] = system: C. albicans; assay: Antifungal MIC assay, 2-fold serial dilution; assay type: cell-based, Candida albicans; details: Candida albicans, read-out: MIC
[19] = system: Gram-positive and Gram-negative bacteria (B. subtilis, S. aureus, E. coli, P. aeruginosa); assay: Disk diffusion, inhibition zones summarised over the tested bacterial strains; details: over the four tested bacterial strains
[20] = Bacillus subtilis, read-out: MBC
[21] = Pseudomonas aeruginosa, read-out: MBC
[22] = Escherichia coli, read-out: MBC

T1 sequence (P0ABQ4 whole entry): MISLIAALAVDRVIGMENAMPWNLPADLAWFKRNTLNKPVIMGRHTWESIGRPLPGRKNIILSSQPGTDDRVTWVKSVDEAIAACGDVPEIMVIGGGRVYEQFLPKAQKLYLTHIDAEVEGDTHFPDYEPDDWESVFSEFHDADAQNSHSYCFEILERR

Row | SMILES | Inhibition Zone (IZ) Diameter [1] | Inhibition Zone (IZ) Diameter [2] | melting point | Inhibition Zone (IZ) Diameter [3] | Inhibition Zone (IZ) Diameter [4] | Inhibition Zone (IZ) Diameter [5] | Inhibition Zone (IZ) Diameter [6] | further results
1 | Clc1ccc(-c2cc(-c3ccccc3)nc3nc(-c4ccccc4)nn23)cc1 [Compound 9b, 7-(4-Chlorophenyl)-2,5-diphenyl-1,2,4-triazolo[1,5-a]pyrimidine] | 21 mm/mL | 23 mm/mL | 214 to 216 °C | 24 mm/mL | 15 mm | 11 mm/mL | 23 | –
2 | COc1ccc(-c2cc(-c3ccc(Cl)cc3)n3nc(-c4ccccc4)nc3n2)cc1 [Compound 9n, 7-(4-Chlorophenyl)-5-(4-methoxyphenyl)-2-phenyl-1,2,4-triazolo[1,5-a]pyrimidine] | 40 mm/mL | 40 mm/mL | – | 40 mm/mL | 36 mm | 32 mm/mL | 41 | MBC [7]: 0.049 ± 0.002 µM (≈ 0.0202 µg/mL); folds less potent than ciprofloxacin as a bactericidal agent (MBC) [7]: 2.6; MBC [7, 20]: 0.049 µM (≈ 0.0202 µg/mL); MIC [8]: 18.5 ± 1 µM (≈ 7.64 µg/mL); MIC [9]: 0.064 ± 0.005 µM (≈ 0.0264 µg/mL); times less effective than ciprofloxacin (MIC) [10]: 3; MIC [10]: 0.029 ± 0.002 µM (≈ 0.012 µg/mL); MIC [11]: 0.033 ± 0.002 µM (≈ 0.0136 µg/mL); MBC [12]: 0.094 ± 0.006 µM (≈ 0.0388 µg/mL); MBC [12, 21]: 0.094 µM (≈ 0.0388 µg/mL); IC50 [13]: 4600 ± 200 nM; MBC [14]: 0.065 ± 0.002 µM (≈ 0.0268 µg/mL); IC50 [15]: 190 ± 11 nM; MIC [16]: 0.065 ± 0.004 µM (≈ 0.0268 µg/mL); MBC [17]: 0.093 ± 0.006 µM (≈ 0.0384 µg/mL); MBC [17, 22]: 0.093 µM (≈ 0.0384 µg/mL); MIC [18]: 21.9 ± 1 µM (≈ 9.04 µg/mL); Inhibition Zone (IZ) Diameter [19]: approximately 40 mm
3 | Clc1ccc(-c2cc(-c3ccc(Cl)cc3)n3nc(-c4ccccc4)nc3n2)cc1 [Compound 9f, 5,7-Bis(4-Chlorophenyl)-2-phenyl-1,2,4-triazolo[1,5-a]pyrimidine] | 14 mm/mL | 15 mm/mL | 202 to 204 °C | 18 mm/mL | 12 mm | 8 mm/mL | 15 | –
4 | COc1ccc(-c2cc(-c3ccccc3)nc3nc(-c4ccccc4)nn23)cc1 [Compound 9d, 7-(4-Methoxyphenyl)-2,5-diphenyl-1,2,4-triazolo[1,5-a]pyrimidine] | 35 mm/mL | 33 mm/mL | – | 34 mm/mL | 30 mm | 27 mm/mL | 35 | MBC [7, 20]: 0.064 ± 0.003 µM (≈ 0.0242 µg/mL); MIC [8]: 21.5 ± 1 µM (≈ 8.14 µg/mL); MIC [9]: 0.075 ± 0.005 µM (≈ 0.0284 µg/mL); MIC [10]: 0.038 ± 0.002 µM (≈ 0.0144 µg/mL); MIC [11]: 0.039 ± 0.002 µM (≈ 0.0148 µg/mL); MBC [12, 21]: 0.109 ± 0.007 µM (≈ 0.0412 µg/mL); IC50 [13]: 5900 ± 200 nM; MBC [14]: 0.071 ± 0.004 µM (≈ 0.0269 µg/mL); IC50 [15]: 217 ± 13 nM; MIC [16]: 0.073 ± 0.005 µM (≈ 0.0276 µg/mL); MBC [17, 22]: 0.102 ± 0.007 µM (≈ 0.0386 µg/mL); MIC [18]: 26.3 ± 1 µM (≈ 9.95 µg/mL)
5 | COc1ccc(-c2cc(-c3ccccc3)n3nc(-c4ccccc4)nc3n2)cc1 [Compound 9m, 5-(4-Methoxyphenyl)-2,7-diphenyl-1,2,4-triazolo[1,5-a]pyrimidine] | 31 mm/mL | 30 mm/mL | 222 to 224 °C | 30 mm/mL | 23 mm | 20 mm/mL | 32 | Inhibition Zone (IZ) Diameter [19]: approximately 30 mm
6 | Cc1ccc(-c2cc(-c3ccc(Cl)cc3)n3nc(-c4ccccc4)nc3n2)cc1 [Compound 9j, 7-(4-Chlorophenyl)-2-phenyl-5-p-tolyl-1,2,4-triazolo[1,5-a]-pyrimidine] | 20 mm/mL | 20 mm/mL | – | 20 mm/mL | – | 10 mm/mL | – | –
7 | Clc1ccc(-c2cc(-c3ccccc3)n3nc(-c4ccccc4)nc3n2)cc1 [Compound 9e, 5-(4-Chlorophenyl)-2,7-diphenyl-1,2,4-triazolo[1,5-a]pyrimidine] | 10 mm/mL | 12 mm/mL | 260 to 262 °C | 11 mm/mL | 8 mm | 5 mm/mL | 12 | –
8 | Cc1ccc(-c2cc(-c3ccccc3)n3nc(-c4ccccc4)nc3n2)cc1 [Compound 9i, 2,7-Diphenyl-5-p-tolyl-1,2,4-triazolo[1,5-a]pyrimidine] | 28 mm/mL | 30 mm/mL | – | 29 mm/mL | – | 17 mm/mL | – | –
9 | c1ccc(-c2cc(-c3ccccc3)n3nc(-c4ccccc4)nc3n2)cc1 [Compound 9a, 2,5,7-Triphenyl-1,2,4-triazolo[1,5-a]pyrimidine] | 12 mm/mL | 14 mm/mL | 210 to 212 °C | 12 mm/mL | 10 mm | 7 mm/mL | 14 | –
10 | COc1ccc(-c2cc(-c3ccc(C)cc3)nc3nc(-c4ccccc4)nn23)cc1 [Compound 9l, 7-(4-Methoxyphenyl)-2-phenyl-5-p-tolyl-1,2,4-triazolo[1,5-a]pyrimidine] | 23 mm/mL | 23 mm/mL | 222 to 224 °C | 22 mm/mL | 17 mm | 15 mm/mL | 26 | –
11 | Cc1ccc(-c2cc(-c3ccc(Cl)cc3)nc3nc(-c4ccccc4)nn23)cc1 [Compound 9g, 5-(4-Chlorophenyl)-2-phenyl-7-p-tolyl-1,2,4-triazolo[1,5-a]pyrimidine] | 19 mm/mL | 20 mm/mL | 248 to 250 °C | 18 mm/mL | 11 mm | 9.0 mm/mL | 20 | Inhibition Zone (IZ) Diameter [19]: 18–20 mm
12 | Cc1ccc(-c2cc(-c3ccc(C)cc3)n3nc(-c4ccccc4)nc3n2)cc1 [Compound 9k, 2-Phenyl-5,7-di-p-tolyl-1,2,4-triazolo[1,5-a]pyrimidine] | 32 mm/mL | 30 mm/mL | 224 to 226 °C | 30 mm/mL | 25 mm | 22 mm/mL | 32 | Inhibition Zone (IZ) Diameter [19]: 30–32 mm
13 | COc1ccc(-c2cc(-c3ccc(Cl)cc3)nc3nc(-c4ccccc4)nn23)cc1 [Compound 9h, 5-(4-Chlorophenyl)-7-(4-methoxyphenyl)-2-phenyl-1,2,4-triazolo[1,5-a]pyrimidine] | 9 mm/mL | 11 mm/mL | – | 12 mm/mL | – | 5 mm/mL | – | –
14 | Cc1ccc(-c2cc(-c3ccccc3)nc3nc(-c4ccccc4)nn23)cc1 [Compound 9c, 2,5-Diphenyl-7-p-tolyl-1,2,4-triazolo[1,5-a]pyrimidine] | 11 mm/mL | 13 mm/mL | 218 to 220 °C | 13 mm/mL | 10 mm | 7 mm/mL | 15 | –
